Reference: ChEMBL document CHEMBL6083182, “Development of Peptide Paratope Mimics Derived from the Anti-ROR1 Antibody and Long-Acting Peptide-Drug Conjugates for Targeted Cancer Therapy” (J Med Chem, 2024)
The source made the active and inactive calls. The calls are words filed in the database; no cut-off is given here. Where a SMILES comes first, the peptide text is derived from it. [ ]: non-standard residue; d: D form. The star is where a group is joined. X1 = COc1cccc2c1C(=O)c1c(O)c3c(c(O)c1C2=O)C[C@@](O)(C(=O)CO)C[C@@H]3O[C@H]1C[C@H](NC(=O)OCc2ccc(NC(=O)C(CCCNC(N)=O)NC(=O)C(NC(=O)CCCCCN3C(=O)CC(*)C3=O)C(C)C)cc2)[C@H](O)[C@H](C)O1; C18 diacid = O=C(O)CCCCCCCCCCCCCCCCC(=O)*; AEEA = NCCOCCOCC(=O)O

Key:
MDA-MB-231 [1] = assay: Induction of apoptosis in human MDA-MB-231 cells assessed as early apoptotic cells at 15 nM incubated for 24 hrs by AnnexinV-FITC/PI staining based flow cytometry (reference value: 0%); type: functional
[2] = Toxicity in BALB/c nude mouse xenografted with human MDA-MB-231 cells assessed as effect on kidney at 5 mg/kg, iv administered once every 3 days for 27 days starting from day 3 by H and E staining based analysis; type: organism-based; settings: in vivo
[3] = biological target: Inactive tyrosine-protein kinase transmembrane receptor ROR1 (Homo sapiens, UniProt Q01973); assay: Binding affinity to N-terminal His/GST-tagged recombinant human ROR1 (453 to 783 residues) extracted from baculovirus infected insect cells assessed as dissociation constant by SPR analysis
MCF7 = assay: Cytotoxicity against ROR1-negative human MCF7 cells assessed as decrease in cell viability incubated for 24 hrs by CCK-8 assay; type: functional, cell-based; settings: MCF7, 24 h
MDA-MB-231 [4] = assay: Induction of apoptosis in human MDA-MB-231 cells assessed as late apoptotic cells at 16 nM incubated for 24 hrs by AnnexinV-FITC/PI staining based flow cytometry (reference value: 0.034%); type: functional
[5] = AUC(0 to t) in Sprague-Dawley rat at 15 mg/kg, iv measured upto 12 hrs by UPLC-QTOF/MS analysis; type: ADME, organism-based; settings: in vivo
[6] = Clearance in Sprague-Dawley rat at 15 mg/kg, iv measured upto 12 hrs by UPLC-QTOF/MS analysis; type: ADME, organism-based; settings: in vivo
[7] = Toxicity in BALB/c nude mouse xenografted with human MDA-MB-231 cells assessed as effect on liver at 5 mg/kg, iv administered once every 3 days for 27 days starting from day 3 by H and E staining based analysis; type: organism-based; settings: in vivo, 576 h, time 24 day
[8] = Elimination rate constant in Sprague-Dawley rat at 15 mg/kg, iv measured upto 12 hrs by UPLC-QTOF/MS analysis; type: ADME, organism-based; settings: in vivo
MDA-MB-231 [9] = assay: Cytotoxicity against ROR1-positive human MDA-MB-231 cells assessed as decrease in cell viability incubated for 24 hrs by CCK-8 assay; type: functional, cell-based; settings: MDA-MB-231, 24 h
[10] = Toxicity in BALB/c nude mouse xenografted with human MDA-MB-231 cells assessed as effect on spleen at 5 mg/kg, iv administered once every 3 days for 27 days starting from day 3 by H and E staining based analysis; type: organism-based; settings: in vivo, 576 h, time 24 day
[11] = Cytotoxicity against human MCF-10A cells assessed as decrease in cell viability incubated for 24 hrs by CCK-8 assay; type: toxicity, cell-based
[12] = Toxicity in BALB/c nude mouse xenografted with human MDA-MB-231 cells assessed as body weight loss at 5 mg/kg, iv administered once every 3 days for 27 days starting from day 3; type: organism-based; settings: in vivo, 576 h, time 24 day
MDA-MB-231 [13] = assay: Induction of apoptosis in human MDA-MB-231 cells assessed as early apoptotic cells at 16 nM incubated for 24 hrs by AnnexinV-FITC/PI staining based flow cytometry (reference value: 0%); type: functional
[14] = MRT in Sprague-Dawley rat at 15 mg/kg, iv measured upto 12 hrs by UPLC-QTOF/MS analysis; type: ADME, organism-based; settings: in vivo
MDA-MB-231 [15] = assay: Induction of apoptosis in human MDA-MB-231 cells assessed as viable cells at 16 nM incubated for 24 hrs by AnnexinV-FITC/PI staining based flow cytometry (reference value: 99.9%); type: functional; settings: read-out: Activity
[16] = Toxicity in BALB/c nude mouse xenografted with human MDA-MB-231 cells assessed as effect on heart at 5 mg/kg, iv administered once every 3 days for 27 days starting from day 3 by H and E staining based analysis; type: organism-based; settings: in vivo, 576 h, time 24 day
[17] = Toxicity in BALB/c nude mouse xenografted in human MDA-MB-231 cells assessed as effect on AST level at 5 mg/kg, iv administered once every 3 days for 27 days starting from day 3; type: organism-based; settings: in vivo, 576 h, time 24 day
MDA-MB-231 [18] = assay: Induction of apoptosis in human MDA-MB-231 cells assessed as late apoptotic cells at 15 nM incubated for 24 hrs by AnnexinV-FITC/PI staining based flow cytometry (reference value: 0.034%); type: functional
[19] = Half life in Sprague-Dawley rat at 15 mg/kg, iv measured upto 12 hrs by UPLC-QTOF/MS analysis; type: ADME, organism-based; settings: in vivo
[20] = AUC(0 to infinity) in Sprague-Dawley rat at 15 mg/kg, iv measured upto 12 hrs by UPLC-QTOF/MS analysis; type: ADME, organism-based; settings: in vivo
SK-HEP1 = assay: Cytotoxicity against human SK-HEP1 cells assessed as decrease in cell viability incubated for 24 hrs by CCK-8 assay; type: functional, cell-based; settings: SK-HEP1, 24 h
MDA-MB-231 [21] = assay: Induction of apoptosis in human MDA-MB-231 cells assessed as viable cells at 15 nM incubated for 24 hrs by AnnexinV-FITC/PI staining based flow cytometry (reference value: 99.9%); type: functional; settings: read-out: Activity
MDA-MB-231 [22] = assay: Antitumor activity against human MDA-MB-231 cells xenografted in BALB/c nude mouse assessed as tumor growth inhibition at 5 mg/kg, iv administered once every 3 days for 27 days starting from day 3; type: functional, organism-based; settings: time 24.0 day
[23] = Drug uptake in ROR1-negative human MCF7 cells assessed as increase in fluorescence intensity at 10 uM incubated for 2 hrs by Hoechst 33342 staining based confocal fluorescence microscopic analysis; type: ADME, cell-based; settings: mcf7, 2 h
[24] = Toxicity in BALB/c nude mouse xenografted with human MDA-MB-231 cells assessed as change in body weight at 5 mg/kg, iv measured after first injection starting from day 3 on day 6; type: organism-based; settings: in vivo, 72 h, time 3 day
MDA-MB-231 [25] = assay: Antitumor activity against human MDA-MB-231 cells xenografted in BALB/c nude mouse assessed as reduction in tumor volume at 5 mg/kg, iv measured after first injection starting from day 3 on day 6; type: functional, organism-based; settings: time 3.0 day
MDA-MB-231 [26] = assay: Induction of apoptosis in human MDA-MB-231 cells assessed as necrotic cells at 15 nM incubated for 24 hrs by AnnexinV-FITC/PI staining based flow cytometry (reference value: 0.034%); type: functional
[27] = Toxicity in BALB/c nude mouse xenografted with human MDA-MB-231 cells assessed as effect on ALT level at 5 mg/kg, iv administered once every 3 days for 27 days starting from day 3; type: organism-based; settings: in vivo, 576 h, time 24 day
[28] = Toxicity in BALB/c nude mouse xenografted with human MDA-MB-231 cells assessed as effect on lung at 5 mg/kg, iv administered once every 3 days for 27 days starting from day 3 by H and E staining based analysis; type: organism-based; settings: in vivo
MDA-MB-231 [29] = assay: Induction of apoptosis in human MDA-MB-231 cells assessed as necrotic cells at 16 nM incubated for 24 hrs by AnnexinV-FITC/PI staining based flow cytometry (reference value: 0.034%); type: functional
[30] = Drug uptake in ROR1-positive human MDA-MB-231 cells cytoplasm assessed as increase in red fluorescence at 10 uM measured after 2 hrs by Hoechst 33342 staining based confocal fluorescence microscopic analysis; type: ADME, subcellular; settings: mda-mb-231, 2 h
[31] = Area under the first moment curve in Sprague-Dawley rat at 15 mg/kg, iv measured upto 12 hrs by UPLC-QTOF/MS analysis; type: ADME, organism-based; settings: in vivo
MDA-MB-231 [32] = assay: Induction of apoptosis in human MDA-MB-231 cells at 10 uM incubated for 24 hrs by Annexin V-FITC/PI staining based flow cytometric analysis; type: functional, cell-based

Sequence of Inactive tyrosine-protein kinase transmembrane receptor ROR1 (Q01973 whole entry, the tested form may be a part): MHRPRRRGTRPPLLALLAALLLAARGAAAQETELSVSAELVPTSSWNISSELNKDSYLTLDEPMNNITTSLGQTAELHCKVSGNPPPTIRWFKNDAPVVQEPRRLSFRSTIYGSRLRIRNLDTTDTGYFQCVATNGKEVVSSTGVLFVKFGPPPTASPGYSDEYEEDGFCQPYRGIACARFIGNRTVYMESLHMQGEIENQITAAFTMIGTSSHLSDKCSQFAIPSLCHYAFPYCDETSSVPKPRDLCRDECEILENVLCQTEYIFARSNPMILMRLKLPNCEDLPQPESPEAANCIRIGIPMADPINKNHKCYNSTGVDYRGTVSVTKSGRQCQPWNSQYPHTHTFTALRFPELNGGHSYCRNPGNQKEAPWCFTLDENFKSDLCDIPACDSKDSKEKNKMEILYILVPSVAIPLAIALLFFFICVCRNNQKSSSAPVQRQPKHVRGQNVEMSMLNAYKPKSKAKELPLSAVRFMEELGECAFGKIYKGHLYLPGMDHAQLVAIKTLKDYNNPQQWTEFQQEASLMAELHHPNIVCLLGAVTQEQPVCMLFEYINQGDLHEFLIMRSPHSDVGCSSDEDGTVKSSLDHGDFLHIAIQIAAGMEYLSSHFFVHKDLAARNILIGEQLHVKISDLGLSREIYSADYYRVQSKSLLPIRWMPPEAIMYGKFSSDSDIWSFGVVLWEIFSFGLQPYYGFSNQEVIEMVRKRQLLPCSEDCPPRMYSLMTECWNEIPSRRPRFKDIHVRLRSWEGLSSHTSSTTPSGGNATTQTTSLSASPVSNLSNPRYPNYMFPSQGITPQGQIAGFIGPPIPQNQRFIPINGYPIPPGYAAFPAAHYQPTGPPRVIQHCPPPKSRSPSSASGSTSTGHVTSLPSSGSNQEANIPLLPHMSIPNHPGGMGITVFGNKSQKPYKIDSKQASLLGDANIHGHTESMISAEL

CC[C@H](C)[C@H](NC(=O)[C@H](CC(=O)O)NC(=O)[C@H](CO)NC(=O)CNC(=O)[C@H](CSC1CC(=O)N(CCCCCC(=O)NC(C(=O)NC(CCCNC(N)=O)C(=O)Nc2ccc(COC(=O)N[C@H]3C[C@H](O[C@H]4C[C@](O)(C(=O)CO)Cc5c(O)c6c(c(O)c54)C(=O)c4c(OC)cccc4C6=O)O[C@@H](C)[C@H]3O)cc2)C(C)C)C1=O)NC(=O)CNC(=O)[C@H](CCCCN)NC(=O)COCCOCCNC(=O)COCCOCCNC(=O)[C@H](CCC(=O)O)NC(=O)CCCCCCCCCCCCCCCCC(=O)O)C(=O)N[C@@H](CC(N)=O)C(=O)N[C@@H](CC(=O)O)C(=O)N[C@@H](CCCNC(=N)N)C(=O)N[C@@H](CCC(N)=O)C(=O)N[C@H](C(=O)N1CCC[C@H]1C(=O)NCC(=O)N[C@@H](Cc1ccc(O)cc1)C(=O)N[C@@H](CO)C(=O)N[C@H](C(=O)N[C@@H](Cc1ccc(O)cc1)C(=O)N[C@@H](Cc1c[nH]c2ccccc12)C(=O)NCC(=O)N[C@@H](CC(=O)O)C(=O)N[C@@H](Cc1ccccc1)C(N)=O)[C@@H](C)O)[C@@H](C)CC (some centres undefined) ({C18 diacid}-E[AEEA][AEEA]KGC(X1)GSDINDRQIPGYSTYWGDF-NH2)
Activity (MDA-MB-231 [1]): 13.3% | Activity [2]: Non-toxic | Kd [3]: 1.72 nM | IC50 (MCF7): 10500 nM | Activity (MDA-MB-231 [4]): 9.51% | AUCt [5]: 55100 ng·h/mL | CL [6]: 0.001 mg/ng/mL/h | Activity [7]: Non-toxic | k el at 12 h [8]: 8.92e-05 s⁻¹ | IC50 (MDA-MB-231 [9]): 15 nM | Activity [10]: Non-toxic | IC50 at 24 h [11]: 23200 nM | Activity [12]: Non-toxic | Activity (MDA-MB-231 [13]): 39.7% | MRT [14]: 3.78 h | viability at 0.016 µM (MDA-MB-231 [15]): 50.3% | Activity [16]: Non-toxic | Activity [17]: Toxic | Activity (MDA-MB-231 [18]): 5.59% | half-life [19]: 2.62 h | AUC(0-inf) [20]: 57800 ng·h/mL | IC50 (SK-HEP1): 576 nM | viability at 0.015 µM (MDA-MB-231 [21]): 80.1% | Activity (MDA-MB-231 [22]): Active | Drug uptake [23]: Not_active | Activity [24]: Non-toxic | Activity (MDA-MB-231 [25]): inactive | Activity (MDA-MB-231 [26]): 1.02% | Activity [27]: Toxic | Activity [28]: Non-toxic | Activity (MDA-MB-231 [29]): 0.5% | Drug uptake [30]: Active | AUMC [31]: 217552.348 ng/mL.hr^2 | Activity (MDA-MB-231 [32]): Active; Exhibited Apoptosis Primarily In Early Stage
